Data reported in US11197868B2, “Prevention of preterm birth (PTB) by inhibition of FKBP51” (UNIVERSITY OF SOUTH FLORIDA, priority 2017, dated 2021).

System: FKBP51
Assay: FKBP51 protein expression in primary term decidual cell cultures by immunoblotting
Type: cell-based
Conditions: 24 hours
Description: This example describes an analysis of FKBP51 expression in primary term decidual cells (DCs) induced by dexamethasone (DEX) (0.1 μM) or 15dPGJ2 (5 or 20 μM) or DEX+15dPGJ2 (0.1 μM+5 or +20 μM).
Glucocorticoids (e.g. dexamethasone (DEX), medroxyprogesterone acetate) are primary inducers of FKBP51 mRNA and protein expression in decidual cells (DCs). It was determined that both restrained stress-induced preterm birth and fetal growth restriction are blocked in FKBP51 knockout mice compared to WT mice. To determine the potential therapeutic impact of 15-deoxy-Δ12,14-prostaglandin J2 (15dPGJ2) on regulation of dexamethasone-induced FKBP51, primary term DC cultures (n=1) were induced by DEX (0.1 μM), 15dPGJ2 (5 or 20 μM), or DEX+15dPGJ2 (0.1 μM+5 or +20 μM) for 24 hours, and FKBP51 protein levels were then analyzed by immunoblotting, as shown in FIG. 15A.

Structure (SMILES)	decrease of FKBP51 expression compared to control (5 μm 15dPGJ2 alone, term DC cultures (n=1))	reduction of DEX-induced FKBP51 expression (5 μm 15dPGJ2 combined with DEX 0.1 μM, term DC cultures (n=1))	decrease of FKBP51 expression compared to control (20 μm 15dPGJ2 alone, term DC cultures (n=1))	effect on DEX-induced FKBP51 expression (20 μm 15dPGJ2 combined with DEX 0.1 μM, term DC cultures (n=1))	increase of FKBP51 expression compared to control (DEX 0.1 μM alone, primary term DC cultures (n=1))
CCCCC/C=C/C=C1/C(=O)C=C[C@@H]1C/C=C\CCCC(=O)O [15dPGJ2, 15-deoxy-Δ12,14-prostaglandin J2]	10%	12%	18%	completely blocking DEX-induced FKBP51 expression	–
C[C@@H]1C[C@H]2[C@@H]3CCC4=CC(=O)C=C[C@]4(C)[C@@]3(F)[C@@H](O)C[C@]2(C)[C@@]1(O)C(=O)CO [DEX, dexamethasone]	–	–	–	–	60%
